Common to all, as to assay: Glasshouse assay for herbicidal activity (pre- and post-emergence), percentage phytotoxicity
Type in all cases: in vivo

Experiment [1] concerns Alopecurus myosuroides (ALOMY). Particulars: Alopecurus myosuroides. Put shortly: (§1)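 Damage was rated visually as percent phytotoxicity, 100% meaning total kill, 20 days after pre-emergence application (made one day post-sowing) or 15 days after post-emergence application (made about 12 days post-sowing). Plants were grown under 16 h light, 65% humidity, warm species 24/18° C, cool 20/16° C.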

Experiment [2] concerns Avena fatua (AVEFA). The following applies: Avena fatua. Put shortly:
as §1

Experiment [3] relates to Echinochloa crus-galli (ECHCG). The following applies: Echinochloa crus-galli. Put shortly: as §1
For experiment [4], the system named is Lolium perenne (LOLPE). The following applies: Lolium perenne. Put shortly:
as §1

[5] abbreviates: post-emergence, 360 h, POST-emergence, rate 250 g/ha, visual score 15 DAA (100%=total damage, 0%=no damage), read-out: Post-emergence herbicidal activity (percentage phytotoxicity) ALOMY POST.
The mark [6] stands for this setting: pre-emergence, 480 h, PRE-emergence, rate 250 g/ha, visual score 20 DAA (100%=total damage, 0%=no damage), read-out: Pre-emergence herbicidal activity (percentage phytotoxicity) ALOMY PRE.
Where [7] appears, read: post-emergence, 360 h, POST-emergence, rate 250 g/ha, visual score 15 DAA (100%=total damage, 0%=no damage), read-out: Post-emergence herbicidal activity (percentage phytotoxicity) AVEFA POST.
[8] abbreviates: pre-emergence, 480 h, PRE-emergence, rate 250 g/ha, visual score 20 DAA (100%=total damage, 0%=no damage), read-out: Pre-emergence herbicidal activity (percentage phytotoxicity) AVEFA PRE.
Where [9] appears, read: post-emergence, 360 h, POST-emergence, rate 250 g/ha, visual score 15 DAA (100%=total damage, 0%=no damage), read-out: Post-emergence herbicidal activity (percentage phytotoxicity) ECHCG POST.
The mark [10] stands for this setting: pre-emergence, 480 h, PRE-emergence, rate 250 g/ha, visual score 20 DAA (100%=total damage, 0%=no damage), read-out: Pre-emergence herbicidal activity (percentage phytotoxicity) ECHCG PRE.
Where [11] appears, read: post-emergence, 360 h, POST-emergence, rate 250 g/ha, visual score 15 DAA (100%=total damage, 0%=no damage), read-out: Post-emergence herbicidal activity (percentage phytotoxicity) LOLPE POST.
[12] abbreviates: pre-emergence, 480 h, PRE-emergence, rate 250 g/ha, visual score 20 DAA (100%=total damage, 0%=no damage), read-out: Pre-emergence herbicidal activity (percentage phytotoxicity) LOLPE PRE.
The mark [13] stands for this setting: post-emergence, 360 h, Rate 250 g/ha, post-emergence, visual assessment 15 DAA, 100%=total damage, 0%=no damage, read-out: Post-emergence herbicidal activity (percentage phytotoxicity) ALOMY POST.
Where [14] appears, read: pre-emergence, 480 h, Rate 250 g/ha, pre-emergence, visual assessment 20 DAA, 100%=total damage, 0%=no damage, read-out: Pre-emergence herbicidal activity (percentage phytotoxicity) ALOMY PRE.
The mark [15] stands for this setting: post-emergence, 360 h, Rate 250 g/ha, post-emergence, visual assessment 15 DAA, 100%=total damage, 0%=no damage, read-out: Post-emergence herbicidal activity (percentage phytotoxicity) AVEFA POST.
The mark [16] stands for this setting: pre-emergence, 480 h, Rate 250 g/ha, pre-emergence, visual assessment 20 DAA, 100%=total damage, 0%=no damage, read-out: Pre-emergence herbicidal activity (percentage phytotoxicity) AVEFA PRE.
Setting [17] is: post-emergence, 360 h, Rate 250 g/ha, post-emergence, visual assessment 15 DAA, 100%=total damage, 0%=no damage, read-out: Post-emergence herbicidal activity (percentage phytotoxicity) ECHCG POST.
The mark [18] stands for this setting: pre-emergence, 480 h, Rate 250 g/ha, pre-emergence, visual assessment 20 DAA, 100%=total damage, 0%=no damage, read-out: Pre-emergence herbicidal activity (percentage phytotoxicity) ECHCG PRE.
Setting [19] is: post-emergence, 360 h, Rate 250 g/ha, post-emergence, visual assessment 15 DAA, 100%=total damage, 0%=no damage, read-out: Post-emergence herbicidal activity (percentage phytotoxicity) LOLPE POST.
The mark [20] stands for this setting: pre-emergence, 480 h, Rate 250 g/ha, pre-emergence, visual assessment 20 DAA, 100%=total damage, 0%=no damage, read-out: Pre-emergence herbicidal activity (percentage phytotoxicity) LOLPE PRE.
Where [21] appears, read: post-emergence, 360 h, 250 g/ha, post-emergence, 15 DAA, visual assessment (100%=total damage, 0%=no damage), read-out: Post-emergence herbicidal activity (percentage phytotoxicity) ALOMY POST.
[22] abbreviates: pre-emergence, 480 h, 250 g/ha, pre-emergence, 20 DAA, visual assessment (100%=total damage, 0%=no damage), read-out: Pre-emergence herbicidal activity (percentage phytotoxicity) ALOMY PRE.
Where [23] appears, read: post-emergence, 360 h, 250 g/ha, post-emergence, 15 DAA, visual assessment (100%=total damage, 0%=no damage), read-out: Post-emergence herbicidal activity (percentage phytotoxicity) AVEFA POST.
Where [24] appears, read: pre-emergence, 480 h, 250 g/ha, pre-emergence, 20 DAA, visual assessment (100%=total damage, 0%=no damage), read-out: Pre-emergence herbicidal activity (percentage phytotoxicity) AVEFA PRE.
Setting [25] is: post-emergence, 360 h, 250 g/ha, post-emergence, 15 DAA, visual assessment (100%=total damage, 0%=no damage), read-out: Post-emergence herbicidal activity (percentage phytotoxicity) ECHCG POST.
[26] abbreviates: pre-emergence, 480 h, 250 g/ha, pre-emergence, 20 DAA, visual assessment (100%=total damage, 0%=no damage), read-out: Pre-emergence herbicidal activity (percentage phytotoxicity) ECHCG PRE.
The mark [27] stands for this setting: post-emergence, 360 h, 250 g/ha, post-emergence, 15 DAA, visual assessment (100%=total damage, 0%=no damage), read-out: Post-emergence herbicidal activity (percentage phytotoxicity) LOLPE POST.
Where [28] appears, read: pre-emergence, 480 h, 250 g/ha, pre-emergence, 20 DAA, visual assessment (100%=total damage, 0%=no damage), read-out: Pre-emergence herbicidal activity (percentage phytotoxicity) LOLPE PRE.

The results in this text go back to patent US10206394B2, “Herbicidal compounds” (Syngenta Participations AG, priority 2014, dated 2019).

Structures are written as SMILES. Like-named read-outs stand apart in the source and are kept apart here.

On to `C=CCNC(=O)CC1CC(=O)C(c2c(C)cc(-n3cc(Cl)cn3)cc2C)C1=O` (stereo not drawn) [Compound B226], for which the pest or weed control at 250 g/ha amounted to 100% in experiment [1] (setting [5]); 100% in experiment [1] (setting [6]); 90% in experiment [2] (setting [7]); 90% in experiment [2] (setting [8]); 100% in experiment [3] (setting [9]); 100% in experiment [3] (setting [10]). In addition, the pest or weed control at 250 g/ha was 90% in experiment [4] (setting [11]) and 80% in experiment [4] (setting [12]).

Regarding `Cc1cc(-c2ncc(Cl)cn2)cc(C)c1C1C(=O)CC(CC(=O)NCc2cccc(Br)c2)C1=O` (stereo not drawn) [Compound B339], the pest or weed control at 250 g/ha was found to be 100% in experiment [1] (setting [13]); 40% in experiment [1] (setting [14]); 100% in experiment [2] (setting [15]); 70% in experiment [2] (setting [16]); 100% in experiment [3] (setting [17]); 100% in experiment [3] (setting [18]). Further, the values for the pest or weed control at 250 g/ha in experiment [4] (setting [19]) and in experiment [4] (setting [20]) were 100% and 90%, respectively.

In the case of `Cc1cc(-c2ncc(C#N)cn2)cc(C)c1C1C(=O)CC(CC(=O)NC(C)(C)C)C1=O` (stereo not drawn) [Compound B270], the pest or weed control at 250 g/ha in experiment [1] (setting [5]) was determined as 100%; in experiment [1] (setting [6]), 100%; in experiment [2] (setting [7]) it was 100%; in experiment [2] (setting [8]), 90%; in experiment [3] (setting [9]), 100%; in experiment [3] (setting [10]), 100%. Besides, the pest or weed control at 250 g/ha in experiment [4] (setting [11]) worked out at 90%; in experiment [4] (setting [12]) it was 100%.

As for `Cc1cc(-n2cc(Cl)cn2)cc(C)c1C1C(=O)CC(CC(=O)NC/C=C/Cl)C1=O` (stereo not drawn) [Compound B308], the pest or weed control at 250 g/ha in experiment [1] (setting [5]) came out at 90%; in experiment [1] (setting [6]), 90%; in experiment [2] (setting [7]), 100%; in experiment [2] (setting [8]), 80%; in experiment [3] (setting [9]), 100%; in experiment [3] (setting [10]), 80%. The pest or weed control at 250 g/ha in experiment [4] (setting [11]) amounted to 60%; in experiment [4] (setting [12]) it was 80%.

In the case of `Cc1cc(C)c(C2=C(OC(=O)C(C)(C)C)CC(CC(=O)NC3(C)COC3)C2=O)c(C)c1` (stereo not drawn) [Compound P15], the pest or weed control at 250 g/ha in experiment [1] (setting [13]) was 90%; in experiment [1] (setting [14]), 70%; in experiment [2] (setting [15]) it was 80%; in experiment [2] (setting [16]), 40%; in experiment [3] (setting [17]) it was 80%; in experiment [3] (setting [18]), 100%. Further, the pest or weed control at 250 g/ha in experiment [4] (setting [19]) and in experiment [4] (setting [20]) was 80% in each case.

For the molecule `Cc1cc(C)c(C2C(=O)CC(CC(=O)NCc3cccc(C)n3)C2=O)c(C)c1` (stereo not drawn) [Compound B68], the pest or weed control at 250 g/ha in experiment [1] (setting [21]) is 90%; in experiment [1] (setting [22]), 80%; in experiment [2] (setting [23]) it was 80%; in experiment [2] (setting [24]) it was 10%; in experiment [3] (setting [25]) it was 70%; in experiment [3] (setting [26]), 80%. For the same molecule, the results for the pest or weed control at 250 g/ha in experiment [4] (setting [27]) and in experiment [4] (setting [28]) were 70% and 80%, respectively.

For the molecule `C=C(C)CNC(=O)CC1CC(=O)C(c2c(C)cc(-c3ccc(Cl)cn3)cc2C)C1=O` (stereo not drawn) [Compound B361], the pest or weed control at 250 g/ha amounted to 100% in experiment [1] (setting [13]); 90% in experiment [1] (setting [14]); 100% in experiment [2] (setting [15]); 100% in experiment [2] (setting [16]); 100% in experiment [3] (setting [17]); 100% in experiment [3] (setting [18]). Further, the pest or weed control at 250 g/ha in experiment [4] (setting [19]) and in experiment [4] (setting [20]) was 90% throughout.

As for `Cc1cc(C)c(C2C(=O)CC(CC(=O)NC3(C4CC4)CC3)C2=O)c(C)c1` (stereo not drawn) [Compound B78], the pest or weed control at 250 g/ha in experiment [1] (setting [21]) is 80%; in experiment [1] (setting [22]), 80%; in experiment [2] (setting [23]), 80%; in experiment [2] (setting [24]), 40%; in experiment [3] (setting [25]) it was 90%; in experiment [3] (setting [26]), 90%. Besides, the figures for the pest or weed control at 250 g/ha in experiment [4] (setting [27]) and in experiment [4] (setting [28]) were 80% and 90%, respectively.

As to `CC#Cc1cc(C)c(C2C(=O)CC(CC(=O)NCC3CC3)C2=O)c(C)c1` (stereo not drawn) [Compound A63], the pest or weed control at 250 g/ha turned out to be 100% in experiment [1] (post-emergence, 360 h, Rate 250 g/ha, post-emergence, assessed visually 15 DAA, 100%=total damage, 0%=no damage, read-out: Post-emergence herbicidal activity (percentage phytotoxicity) ALOMY POST); 100% in experiment [1] (pre-emergence, 480 h, Rate 250 g/ha, pre-emergence, assessed visually 20 DAA, 100%=total damage, 0%=no damage, read-out: Pre-emergence herbicidal activity (percentage phytotoxicity) ALOMY PRE); 100% in experiment [2] (post-emergence, 360 h, Rate 250 g/ha, post-emergence, assessed visually 15 DAA, 100%=total damage, 0%=no damage, read-out: Post-emergence herbicidal activity (percentage phytotoxicity) AVEFA POST); 90% in experiment [2] (pre-emergence, 480 h, Rate 250 g/ha, pre-emergence, assessed visually 20 DAA, 100%=total damage, 0%=no damage, read-out: Pre-emergence herbicidal activity (percentage phytotoxicity) AVEFA PRE); 100% in experiment [3] (post-emergence, 360 h, Rate 250 g/ha, post-emergence, assessed visually 15 DAA, 100%=total damage, 0%=no damage, read-out: Post-emergence herbicidal activity (percentage phytotoxicity) ECHCG POST); 100% in experiment [3] (pre-emergence, 480 h, Rate 250 g/ha, pre-emergence, assessed visually 20 DAA, 100%=total damage, 0%=no damage, read-out: Pre-emergence herbicidal activity (percentage phytotoxicity) ECHCG PRE). Further, the pest or weed control at 250 g/ha in experiment [4] (post-emergence, 360 h, Rate 250 g/ha, post-emergence, assessed visually 15 DAA, 100%=total damage, 0%=no damage, read-out: Post-emergence herbicidal activity (percentage phytotoxicity) LOLPE POST) was 90%; in experiment [4] (pre-emergence, 480 h, Rate 250 g/ha, pre-emergence, assessed visually 20 DAA, 100%=total damage, 0%=no damage, read-out: Pre-emergence herbicidal activity (percentage phytotoxicity) LOLPE PRE), 100%.
